Values of other authors in patent US7977378B1, “Compositions and methods for enhancing weight-loss by cyclical administration of compounds” (priority 2007, dated 2011).
Values belong to the compound of their own block, whether it stands above or below them.

Assays:
adipocyte = conditions: in vitro
hepatic TG = conditions: 60 mg/kg·day
[1] = tested on: hepatic glucose-6-phosphatase
[2] = tested on: endothelium-intact rat aorta; conditions: equal potency
[3] = up to 200 mg kg-1
[4] = tested on: contractile effect of noradrenaline; conditions: 2×10(−6) and 1×10(−7) M
[5] = tested on: contractile responses evoked by phenylephrine and high K+; conditions: 4 approximately 12 microg/mL
[6] = tested on: guinea-pig isolated right atria

Compound: C=CCSSC=CC[S+]([O-])CC=C (mixture of isomers) [ajoene]
Adipocyte apoptosis (adipocyte): induced

Compound: Cn1c(=O)c2c(ncn2C)n(C)c1=O [caffeine]
Increase of energy expenditure (after ingestion): 13%
Increase of oxidative FFA disposal (after ingestion): 44%
Share of lipids oxidized (after ingestion): 24%
Share of lipids recycled (after ingestion): 76%
Oxidative FFA disposal (after ingestion (from 236+/−21)): 340+/−16 micro mol/min
Non-oxidative FFA disposal (after ingestion (from 455+/−66)): 1054+/−242 micro mol/min
Increase of non-oxidative FFA disposal (after ingestion, P<0.01): 2.3 fold
Increase of lipid turnover (steady state (last hour of the test) after ingestion, P<0.005): 2 fold

Inhibition of hepatic glucose-6-phosphatase [1]: selectively inhibit
Compound: O=C(/C=C/c1ccc(O)c(O)c1)O[C@@H]1C[C@](O)(C(=O)O)C[C@@H](O)[C@H]1O [chlorogenic acid]
Level of hepatic TG (hepatic TG): significantly reduced
Effect on cell cycle (3T3-L1 preadipocytes): cell cycle arrest in the G1 phase

Compound: C[n+]1c2n(c(=O)c3ccccc31)CCc1c-2[nH]c2ccccc12 [dehydroevodiamine]
Vasodilatory effect [2]: vasodilatory effect

Compound: COc1ccc([C@@H]2CC(=O)c3c(O)cc(O)cc3O2)cc1O [hesperitin]
Effect on intestinal transit [3]: no effect

Compound: O=C(O)/C=C/c1cccc(O)c1 [m-coumaric acid]
Effect on cell cycle (3T3-L1 preadipocytes): cell cycle arrest in the G1 phase

Compound: O=C1C[C@@H](c2ccc(O)cc2)Oc2cc(O)cc(O)c21 [naringenin]
Contractile effect of noradrenaline [4]: increased

Compound: O=C(O)/C=C/c1ccccc1O [o-coumaric acid]
Effect on cell cycle (3T3-L1 preadipocytes): cell cycle arrest in the G1 phase

Compound: (−)-epigallocatechin gallate [EGCG]
Adipocyte apoptosis (adipocyte): induced
Effect on contractile responses evoked by phenylephrine and high K+ [5]: did not affect

Compound: TNF-alpha
Adipocyte apoptosis (adipocyte): induced

Compound: catechin
Effect on intestinal transit [3]: no effect

Compound: evodiamine
Vasodilatory effect [2]: vasodilatory effect
Catecholamine secretion (bovine adrenal medulla): stimulate
Insensitivity of the cells to acetylcholine or high K+ stimulation (bovine adrenal medulla): reversed insensitivity
Inotropic and chronotropic effects [6]: positive inotropic and chronotropic effects
